From patent US11753371B2 (BATTERJEE MEDICAL COLLEGE, priority 2021, dated 2023)

Columns and labels:
Format in all cases: biochemical
[1] = biological target: ALDH2 (Homo sapiens (Human), UniProt P05091); experiment: ALDH assay (diaphorase/resazurin), ALDH2 inhibition
Excerpt: (§1) ALDH catalyzes the oxidation of acetaldehyde to acetic acid while reducing NAD+ to NADH. The formation of NADH is fluorescently detected using diaphorase/resazurin system. Diaphorase utilizes NADH formed from ALDH reaction to produce the fluorescent molecule resorufin from resazurin. See Davis, M. I.; Shen, M.; Simeonov, A.; Hall, M. D., Diaphorase Coupling Protocols for Red-Shifting Dehydrogenase Assays.
(§2) The reagent ALDH1a1 is from R&D Systems (Minneapolis, MN). ALDH2 is from Prospect Bio (East Brunswick, NJ). Acetaldehyde is from Cayman Chemicals (Ann Arbor, MI). NAD^+, and Resazurin sodium salt are from Sigma (St. Louis, MO). Diaphorase is from Reaction Biology (Malvern PA). Zaba micro spin columns are from ThermoFisher scientific (Waltham, MA). […] Desalted samples from each enzyme were pooled together and placed in ice until use. Reaction buffer (50 mM sodium pyrophosphate buffer at pH 8.8, 0.01% Brij35) degassed using vacuum for 10 mins until no visible air bubbles were seen.
(§3) 5 μl of reaction buffer was delivered to ‘no enzyme’ background control wells. Test compounds were prepared in 100% DMSO by serial dilution in 100× of assay concentration. After adding the test compounds, reaction plate was centrifuged briefly in 1200 rpm, then incubated for 20 min at room temperature, to pre-incubate enzyme and compounds. […] Reaction plate was briefly centrifuged and sealed with a plastic film to limit evaporation. After incubation at room temperature for 60 min, 10 μl of detection reagent (15 μg/ml diaphorase, 30 μM resazurin prepared in the degassed reaction buffer) was added. Reaction plate was briefly centrifuged and incubated for 10 minutes at room temperature in the dark.

[2] = biological target: ALDH1a1 (Homo sapiens (Human), UniProt P00352); experiment: ALDH assay (diaphorase/resazurin), ALDH1a1 inhibition
Excerpt: as §1, §2, §3

[3] = biological target: human MAGL (hMAGL) (Homo sapiens (Human), UniProt Q99685); experiment: MAGL enzyme inhibition assay (4-nitrophenylacetate); conditions: relative to disulfiram / unsubstituted analogue
Experimental: The plate was mixed for 30 s and incubated at room temperature for 30 min.

[4] = biological target: human FAAH (hFAAH) (Homo sapiens (Human), UniProt O00519); experiment: FAAH enzyme inhibition assay (Cayman screening kit, AMC-arachidonoyl amide); set-up: key to IC50 (μM) ± SE (hFAAH): NI: no inhibition seen at the tested conditions
Experimental: FAAH inhibition assay was performed using Fatty Acid Amide Hydrolase Inhibitor Screening Assay Kit (Item #10005196), Cayman (1180 E Ellsworth Rd Ann Arbor, MI, USA). […] Manufacturer's protocol was followed to perform the assay. The assay buffer (125 mM Tri-HCl with 1 mM EDTA, pH 9.0) was used to dilute the FAAH human recombinant enzyme. AMC-Arachidonoyl amide, at a concentration of 400 μM was then used as the FAAH substrate. Samples were mixed for 30 s and incubated at 37° C. for 30 min. The fluorescent by-product AMC (7-amino-4-methylcoumarin) released by the FAAH enzyme was detected and quantified at an excitation wavelength of 355 nm and emission wavelength of 460 nm.

[5] = Table II, average of at least two different experiments

Chain of ALDH1a1 (P00352 whole entry): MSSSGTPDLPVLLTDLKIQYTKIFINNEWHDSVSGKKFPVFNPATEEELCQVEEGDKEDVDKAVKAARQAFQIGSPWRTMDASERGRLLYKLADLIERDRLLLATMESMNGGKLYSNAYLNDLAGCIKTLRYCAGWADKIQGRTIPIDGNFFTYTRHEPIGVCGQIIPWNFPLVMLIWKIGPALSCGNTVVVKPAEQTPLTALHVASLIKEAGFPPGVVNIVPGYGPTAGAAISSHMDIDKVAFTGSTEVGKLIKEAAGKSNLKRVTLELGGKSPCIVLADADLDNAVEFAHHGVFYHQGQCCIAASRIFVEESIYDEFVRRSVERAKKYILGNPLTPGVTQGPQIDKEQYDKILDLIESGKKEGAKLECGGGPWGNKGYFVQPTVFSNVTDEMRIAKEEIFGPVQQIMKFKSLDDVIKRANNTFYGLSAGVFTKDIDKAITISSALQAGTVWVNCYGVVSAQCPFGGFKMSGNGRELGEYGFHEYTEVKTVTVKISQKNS
Chain of ALDH2 (P05091 18-517): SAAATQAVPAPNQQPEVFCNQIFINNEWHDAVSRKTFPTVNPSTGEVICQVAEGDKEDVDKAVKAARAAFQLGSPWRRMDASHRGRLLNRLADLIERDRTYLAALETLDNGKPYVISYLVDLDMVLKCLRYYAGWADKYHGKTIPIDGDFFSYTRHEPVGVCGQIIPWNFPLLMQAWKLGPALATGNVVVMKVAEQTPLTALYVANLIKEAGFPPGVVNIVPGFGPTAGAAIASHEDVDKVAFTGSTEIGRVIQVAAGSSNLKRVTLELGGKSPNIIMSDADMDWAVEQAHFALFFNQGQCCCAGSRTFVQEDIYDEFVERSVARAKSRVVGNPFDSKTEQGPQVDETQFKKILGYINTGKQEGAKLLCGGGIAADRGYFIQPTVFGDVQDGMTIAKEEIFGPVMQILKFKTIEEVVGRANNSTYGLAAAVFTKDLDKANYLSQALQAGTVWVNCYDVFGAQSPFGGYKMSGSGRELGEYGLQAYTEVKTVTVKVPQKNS
Chain of human FAAH (hFAAH) (O00519 whole entry): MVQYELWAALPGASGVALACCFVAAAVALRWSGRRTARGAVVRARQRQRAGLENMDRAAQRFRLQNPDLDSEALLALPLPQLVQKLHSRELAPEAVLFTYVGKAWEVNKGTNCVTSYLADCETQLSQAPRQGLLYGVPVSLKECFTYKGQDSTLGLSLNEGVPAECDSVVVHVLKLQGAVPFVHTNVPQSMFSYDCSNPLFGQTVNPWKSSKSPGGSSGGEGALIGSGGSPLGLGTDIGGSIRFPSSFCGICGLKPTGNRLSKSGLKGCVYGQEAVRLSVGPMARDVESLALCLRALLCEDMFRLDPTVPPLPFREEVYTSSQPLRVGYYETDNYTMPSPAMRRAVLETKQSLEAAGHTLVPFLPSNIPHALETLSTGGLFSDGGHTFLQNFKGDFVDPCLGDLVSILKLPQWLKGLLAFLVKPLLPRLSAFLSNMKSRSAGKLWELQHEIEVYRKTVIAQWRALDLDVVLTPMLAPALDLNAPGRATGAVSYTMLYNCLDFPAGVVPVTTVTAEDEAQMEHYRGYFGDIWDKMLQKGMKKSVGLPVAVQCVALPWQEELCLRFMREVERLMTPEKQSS
Chain of human MAGL (hMAGL) (Q99685 whole entry): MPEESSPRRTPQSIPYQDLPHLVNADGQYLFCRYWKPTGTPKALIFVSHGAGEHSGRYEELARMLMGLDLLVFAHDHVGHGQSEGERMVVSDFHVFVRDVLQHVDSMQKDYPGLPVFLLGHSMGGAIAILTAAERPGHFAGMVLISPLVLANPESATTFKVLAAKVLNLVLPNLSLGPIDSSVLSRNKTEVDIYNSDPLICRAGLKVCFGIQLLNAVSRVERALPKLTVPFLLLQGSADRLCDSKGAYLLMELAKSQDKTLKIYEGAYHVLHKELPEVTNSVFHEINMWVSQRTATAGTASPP

Cl.NCCS [3 Cysteamine•HCl, Cysteamine•HCl]
ALDH2 inhibitory activity (in words) [1]: none of them showed any activity
ALDH1a1 inhibitory activity (in words) [2]: none of them showed any activity

CC(=O)N[C@@H](CS)C(=O)O [5 N•Acetyl-i-Cysteine, N•Acetyl-i-Cysteine]
ALDH2 inhibitory activity (in words) [1]: none of them showed any activity
ALDH1a1 inhibitory activity (in words) [2]: none of them showed any activity

CCN(Cc1ccc(C(=O)O)cc1)C(=S)SSC(=S)N(CC)Cc1ccc(C(=O)O)cc1 [Compound I-2d]
fold decrease in MAGL inhibitory activity [3]: 20 fold
change in ALDH1a1 inhibitory activity relative to I-2a ([2]; para carboxylic acid versus I-2a): tenfold decrease
FAAH inhibitory activity (in words) [4]: devoid of anti-FAAH activity
IC50 (μM) ± SE (hFAAH) [4, 5]: NI

CCN(CCC(=O)O)C(=S)SSC(=S)N(CC)CCC(=O)O [Compound I-2e, bis(N-carboxylethylethylthiocarbamoyl)disulfide]
IC50 ([4]; Table II, average of at least two different experiments, read-out: IC50 (μM) ± SE (hFAAH)): 122 ± 1.57 µM

CCN(C)C(=S)SSC(=S)N(C)CC [Compound I-2g]
IC50 ([1]; Table I, mean of at least two independent experiments, read-out: IC50 (μM) ± SE (ALDH2)): 0.32 ± 0.04 µM
IC50 ([2]; Table I, mean of at least two independent experiments, read-out: IC50 (μM) ± SE (ALDH1a1)): 0.02 ± 0.01 µM

CC(C)N(C(=S)SSC(=S)N(C(C)C)C(C)C)C(C)C [Compound I-2h]
IC50 (μM) ± SE (hFAAH) [4, 5]: NI

CC(C)CN(CC(C)C)C(=S)SSC(=S)N(CC(C)C)CC(C)C [Compound I-2j]
fold decrease in MAGL inhibitory activity [3]: up to 15 fold
ALDH1a1 inhibitory activity (in words) [2]: complete loss of activity
FAAH inhibitory activity (in words) [4]: no inhibition of FAAH
IC50 (μM) ± SE (hFAAH) [4, 5]: NI

CCN(Cc1ccc(C)cc1)C(=S)SSC(=S)N(CC)Cc1ccc(C)cc1 [III-2i, bis (N-4-Methylbenzyethylthiocarbamoyl) disulphide]
Aldh2 (IC50, μM) ± SE ([1]; Table III): No inhibition
Aldh1a1 (IC50, μM) ± SE ([2]; Table III): No inhibition

bis(N-4-ethoxycarbonylbenzylethylthiocarbamoyl)disulphide [II-2l]
FAAH inhibitory activity (in words) [4]: devoid of anti-FAAH activity
IC50 (μM) ± SE (hFAAH) [4, 5]: NI
